Columns and labels:
[1] = target: T1, SIRT1 (Homo sapiens, UniProt Q96EB6); experiment: TAMRA based mass spectrometry assay of SIRT1 activity; format: biochemical; details: TAMRA assay; for TAMRA EC1.5 (μM): concentration giving 150% activation of SIRT1; for Emax: percent maximum fold activation, read-out: TAMRA % Fold Act
T1 sequence (Q96EB6 1-747): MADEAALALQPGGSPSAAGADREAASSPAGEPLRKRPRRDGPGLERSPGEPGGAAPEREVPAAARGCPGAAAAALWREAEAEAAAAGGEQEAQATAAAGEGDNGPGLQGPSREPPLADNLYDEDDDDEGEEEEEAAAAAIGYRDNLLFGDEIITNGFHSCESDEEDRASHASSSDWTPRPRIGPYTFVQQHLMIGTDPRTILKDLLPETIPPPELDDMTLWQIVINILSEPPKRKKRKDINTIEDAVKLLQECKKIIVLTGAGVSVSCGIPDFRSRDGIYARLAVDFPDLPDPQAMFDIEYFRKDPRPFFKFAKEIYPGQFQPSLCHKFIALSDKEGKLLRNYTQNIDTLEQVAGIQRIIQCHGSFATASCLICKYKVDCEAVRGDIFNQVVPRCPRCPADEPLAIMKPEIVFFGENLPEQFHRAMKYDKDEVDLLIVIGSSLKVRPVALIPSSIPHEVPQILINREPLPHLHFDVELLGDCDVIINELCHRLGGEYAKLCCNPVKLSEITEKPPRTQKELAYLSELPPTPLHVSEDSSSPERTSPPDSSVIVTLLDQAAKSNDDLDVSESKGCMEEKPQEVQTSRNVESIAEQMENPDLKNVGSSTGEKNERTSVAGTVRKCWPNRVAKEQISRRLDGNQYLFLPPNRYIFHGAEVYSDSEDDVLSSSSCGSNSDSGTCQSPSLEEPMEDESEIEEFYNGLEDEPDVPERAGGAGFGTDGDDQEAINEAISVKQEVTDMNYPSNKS
Summary of the method: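 Deacetylation of a biotinylated, TAMRA-tagged p53-based peptide (0.5 μM) by 10 nM His-tagged SIRT1 with 120 μM βNAD+, 25 °C for 25 min, pH 8 Tris-acetate buffer, across a compound concentration range. Quenched by formic acid and read by mass spec as product peptide or OAADPR; activity relative to DMSO reactions, nicotinamide defining maximal inhibition.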

[2] = target: T1, SIRT1; experiment: Trp mass spectrometry assay of SIRT1 activity; format: biochemical; details: Trp assay; for Trp EC1.5 (μM): concentration giving 150% activation of SIRT1; for Emax: percent maximum fold activation, read-out: Trp % Fold Act
Summary of the method: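 Activation readout: EC1.5 (concentration raising activity 50% over control) and percent maximum activation, from mass-spec quantitation of OAADPR or deacetylated Trp peptide. Reaction: 0.5 μM acetylated Trp peptide, 120 μM βNAD+, 10 nM bacterially expressed N-His SIRT1, pH 7.5 HEPES buffer with […], 25 min at 25° C.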

SMILES | TAMRA EC1.5 (μM) [1] | Emax [1] | Trp EC1.5 (μM) [2] | Emax [2]
COCCOc1nccc(NC(=O)c2cnc3ccc(-c4ccccc4C(F)(F)F)nn23)n1 [Compound 634] | A (EC1.5<1 μM) | ≥ 350% | A (EC1.5<1 μM) | ≥ 350%
CCOc1ccc(NC(=O)c2cnn3ccc(-c4ccccc4OC(F)(F)F)nc23)nn1 [Compound 636] | A (EC1.5<1 μM) | ≥ 350% | B (EC1.5 1-25 μM) | < 350%
Cc1nccc(NC(=O)c2c(C)nn3ccc(-c4ccccc4C(F)(F)F)nc23)c1C [Compound 639] | A (EC1.5<1 μM) | ≥ 350% | A (EC1.5<1 μM) | ≥ 350%
Cc1ccncc1NC(=O)c1cnn2ccc(-c3ccccc3C(F)(F)F)nc12 [Compound 640] | B (EC1.5 1-25 μM) | < 350% | B (EC1.5 1-25 μM) | < 350%
O=C(Nc1cncc(F)c1)c1cnn2ccc(-c3ccccc3C(F)(F)F)nc12 [Compound 642] | A (EC1.5<1 μM) | ≥ 350% | B (EC1.5 1-25 μM) | ≥ 350%
O=C(Nc1cnc2ccc(-c3ccccc3C(F)(F)F)nn12)c1cncc(OC[C@@H](O)CO)n1 [Compound 645] | A (EC1.5<1 μM) | ≥ 350% | A (EC1.5<1 μM) | ≥ 350%
Cc1cc(-c2ccccc2C(F)(F)F)nn2c(C(=O)Nc3nccc(N4CCCC4)n3)cnc12 [Compound 647] | A (EC1.5<1 μM) | ≥ 350% | A (EC1.5<1 μM) | ≥ 350%
Cc1csc(NC(=O)c2c(C)nn3ccc(-c4ccccc4C(F)(F)F)nc23)n1 [Compound 650] | A (EC1.5<1 μM) | ≥ 350% | A (EC1.5<1 μM) | ≥ 350%
Cc1cccnc1NC(=O)c1cnn2ccc(-c3ccccc3C(F)(F)F)nc12 [Compound 653] | C (EC1.5>25 μM) | < 350% | B (EC1.5 1-25 μM) | ≥ 350%
Cc1cncc(NC(=O)c2cnn3ccc(-c4ccccc4C(F)(F)F)nc23)n1 [Compound 654] | A (EC1.5<1 μM) | ≥ 350% | B (EC1.5 1-25 μM) | < 350%
O=C(Nc1ncc(F)cc1F)c1cnn2ccc(-c3ccccc3C(F)(F)F)nc12 [Compound 656] | B (EC1.5 1-25 μM) | ≥ 350% | B (EC1.5 1-25 μM) | < 350%
Cc1cc(NC(=O)c2cnn3ccc(-c4ccccc4OC(F)(F)F)nc23)nc(C)n1 [Compound 659] | A (EC1.5<1 μM) | ≥ 350% | B (EC1.5 1-25 μM) | < 350%
COCCOc1cc(NC(=O)c2cnc3ccc(-c4ccccc4C(F)(F)F)nn23)ncn1 [Compound 663] | A (EC1.5<1 μM) | ≥ 350% | B (EC1.5 1-25 μM) | < 350%
COc1ccc(NC(=O)c2c(C)nc3ccc(-c4ccccc4C(F)(F)F)nn23)nn1 [Compound 665] | A (EC1.5<1 μM) | ≥ 350% | B (EC1.5 1-25 μM) | < 350%
COc1ccnc(NC(=O)c2c(C)nc3ccc(-c4ccccc4C(F)(F)F)nn23)c1 [Compound 671] | A (EC1.5<1 μM) | ≥ 350% | A (EC1.5<1 μM) | ≥ 350%
Cc1nc2ccc(-c3ccccc3C(F)(F)F)nn2c1C(=O)Nc1ccnn1C(C)(C)C [Compound 672] | B (EC1.5 1-25 μM) | < 350% | B (EC1.5 1-25 μM) | < 350%
CCn1nccc1NC(=O)c1c(C)nc2ccc(-c3ccccc3C(F)(F)F)nn12 [Compound 674] | B (EC1.5 1-25 μM) | < 350% | B (EC1.5 1-25 μM) | ≥ 350%
Cc1nc2ccc(-c3ccccc3C(F)(F)F)nn2c1C(=O)Nc1ccnn1C(C)C [Compound 680] | B (EC1.5 1-25 μM) | < 350% | B (EC1.5 1-25 μM) | ≥ 350%

SMILES | TAMRA EC1.5 (μM) [1] | Emax [1] | Trp EC1.5 (μM) [2] | Emax [2]
Cc1ccnnc1NC(=O)c1cnc2c(C)cc(-c3ccccc3C(F)(F)F)nn12 [Compound 681] | C (EC1.5>25 μM) | < 350% | B (EC1.5 1-25 μM) | ≥ 350%
Cc1ccnc(NC(=O)c2c(C)nn3ccc(-c4ccccc4C(F)(F)F)nc23)c1 [Compound 683] | A (EC1.5<1 μM) | ≥ 350% | A (EC1.5<1 μM) | ≥ 350%
Cc1nn2ccc(-c3ccccc3C(F)(F)F)nc2c1C(=O)Nc1ccc(F)cn1 [Compound 686] | A (EC1.5<1 μM) | ≥ 350% | A (EC1.5<1 μM) | < 350%
Cc1cc(C)nc(NC(=O)c2cnn3ccc(-c4ccccc4OC(F)(F)F)nc23)n1 [Compound 688] | B (EC1.5 1-25 μM) | ≥ 350% | B (EC1.5 1-25 μM) | < 350%
Cc1cccc(-c2ccc3nc(C)c(C(=O)Nc4ccc(C)nn4)n3n2)c1 [Compound 692] | A (EC1.5<1 μM) | < 350% | A (EC1.5<1 μM) | < 350%
Cc1ccc(NC(=O)c2c(C)nc3ccc(-c4ccccc4C)nn23)nn1 [Compound 694] | B (EC1.5 1-25 μM) | ≥ 350% | B (EC1.5 1-25 μM) | < 350%
Cc1nn2ccc(-c3ccccc3C(F)(F)F)nc2c1C(=O)Nc1cccnn1 [Compound 695] | A (EC1.5<1 μM) | ≥ 350% | A (EC1.5<1 μM) | ≥ 350%
Cc1ccc(NC(=O)c2c(C)nn3ccc(-c4ccccc4C(F)(F)F)nc23)c(C)n1 [Compound 698] | A (EC1.5<1 μM) | ≥ 350% | A (EC1.5<1 μM) | ≥ 350%
Cc1cccnc1NC(=O)c1cnn2ccc(-c3ccccc3OC(F)(F)F)nc12 [Compound 701] | B (EC1.5 1-25 μM) | < 350% | A (EC1.5<1 μM) | ≥ 350%
O=C(Nc1cnc2ccc(-c3ccccc3C(F)(F)F)nn12)c1cnc(O)cn1 [Compound 704] | A (EC1.5<1 μM) | ≥ 350% | B (EC1.5 1-25 μM) | < 350%
Cc1nc2ccc(-c3ccccc3F)nn2c1C(=O)Nc1cccnn1 [Compound 706] |  | < 350% |  | < 350%
CCOc1cc(NC(=O)c2c(C)nn3ccc(-c4ccccc4C(F)(F)F)nc23)ccn1 [Compound 707] | A (EC1.5<1 μM) | ≥ 350% | A (EC1.5<1 μM) | ≥ 350%
Cc1cnc(NC(=O)c2c(C)nn3ccc(-c4ccccc4C(F)(F)F)nc23)cn1 [Compound 710] | A (EC1.5<1 μM) | ≥ 350% | A (EC1.5<1 μM) | ≥ 350%
Cc1nc(C(=O)Nc2cnn3ccc(-c4ccccc4OC(F)(F)F)nc23)c(C)s1 [Compound 713] | B (EC1.5 1-25 μM) | ≥ 350% | B (EC1.5 1-25 μM) | < 350%
Cc1ccc(NC(=O)c2c(C)nc3ccc(-c4cccc(F)c4)nn23)nn1 [Compound 716] | B (EC1.5 1-25 μM) | < 350% | A (EC1.5<1 μM) | < 350%
COc1ccc(NC(=O)c2c(C)nc3ccc(-c4cccc(OC(F)(F)F)c4)nn23)nn1 [Compound 718] | A (EC1.5<1 μM) | < 350% | C (EC1.5>25 μM) | < 350%
Cc1cccnc1NC(=O)c1c(C)nn2ccc(-c3ccccc3C(F)(F)F)nc12 [Compound 722, 2-methyl-N-(3-methylpyridin-2-yl)-5-(2-(trifluoromethyl)phenyl)pyrazolo[1,5-a]pyrimidine-3-carboxamide] | B (EC1.5 1-25 μM) | < 350% | A (EC1.5<1 μM) | ≥ 350%
